One data set concerns SREBP2. Nature of the data set: SREBP2 cleavage in HEPG2 cells (Western blot normalized to actin). The format is cell-based. Conditions: Homo sapiens, read-out: Average SREBP2 cleavage (% Inhibition, n = 3). On the procedure: Average SREBP2 cleavage in HEPG2 cells was measured in the presence of compounds disclosed in Table 1. HepG2 cells were seeded at 500,000 cells per well in 6-well plates in DMEM supplemented with 10% FBS. After 2 days, cells were treated with compounds (20 μM) for 1 day in DMEM without FBS. Western blots were normalized with respect to actin.
The results are shown in Table 3 as percent inhibition@20 μM, and in Table 4 as percent inhibition@5 μM.

Data set [1] in a line: HepG2 cell viability by MTS. Conditions: human, HepG2 cells, 3 days, DMEM without FBS, MTS, read-out: Average Viability (% Inhibition, n = 3). The format is cell-based. The procedure: For viability measurements, HepG2 cells were seeded at 5,000 cells per well in 96-well plates in DMEM supplemented with 10% FBS. After 1 day in culture, cells were treated with compounds (20 μM & 5 μM) for 3 days in DMEM without FBS. Viability was measured by MTS. Treatment with compounds (20 μM & 5 μM) was carried out in medium without FBS, and viability was measured by MTS. […]

[2] abbreviates: 24 h, 20 μM, HepG2 cells, 1 day, DMEM without FBS.

Where two headings read alike, the source gives them in different places.

As for `O=S(=O)(Nc1ccc(-c2csc(-c3ccc(C(F)(F)F)c(OCc4ccccc4)c3)n2)c(Cl)c1)C(F)(F)F` [Compound 73, N-(4-{2-[3-(benzyloxy)-4-(trifluoromethyl)phenyl]-1,3-thiazol-4-yl}-3-chlorophenyl)-1,1,1-trifluoromethanesulfonamide], the inhibition at 5 µM with SREBP2 (HepG2 cells) was found to be 64%. Further, in data set [1], the cytotoxicity at 3 days, 5 μM came out at 99%.
For `COc1ccc(-c2nc(-c3ccc(NS(=O)(=O)C(F)(F)F)cc3Cl)cs2)cc1OC` [Compound 79, N-{3-chloro-4-[2-(3,4-dimethoxyphenyl)-1,3-thiazol-4-yl]phenyl}-1,1,1-trifluoromethanesulfonamide] the same measures were 65% and 74%.
For `O=S(=O)(Nc1ccc(-c2csc(-c3ccnc(NC4CCCC4)c3)n2)c(Cl)c1)C(F)(F)F` [Compound 92, N-(3-chloro-4-{2-[2-(cyclopentylamino)pyridin-4-yl]-1,3-thiazol-4-yl}phenyl)-1,1,1-trifluoromethanesulfonamide] the same measures were 59% and 94%.
For `CN1CCN(c2cc(-c3nc(-c4ccc(NS(=O)(=O)C(F)(F)F)cc4Cl)cs3)ccn2)CC1` [Compound 76, N-(3-chloro-4-{2-[2-(4-methylpiperazin-1-yl)pyridin-4-yl]-1,3-thiazol-4-yl}phenyl)-1,1,1-trifluoromethanesulfonamide], in the data set with SREBP2 (HepG2 cells), the inhibition at 5 µM came out at 7%. In data set [1], the cytotoxicity at 3 days, 5 μM was determined as 3%.
Consider `COc1cc(-c2csc(-c3ccnc(CC(C)C)c3)n2)ccc1NS(=O)(=O)C(F)(F)F` [Compound 57, 1,1,1-trifluoro-N-(2-methoxy-4-{2-[2-(2-methylpropyl)pyridin-4-yl]-1,3-thiazol-4-yl}phenyl)methanesulfonamide], for which the inhibition at 20 µM with SREBP2 (setting [2]) is 46.9%. In data set [1], the cytotoxicity at 3 days, 20 μM is 56.4%.
For `O=S(=O)(Nc1ccc(-c2csc(-c3ccnc(NS(=O)(=O)C(F)(F)F)c3)n2)c(Cl)c1)C(F)(F)F` [Compound 66, N-{3-chloro-4-[2-(2-trifluoromethanesulfonamidopyridin-4-yl)-1,3-thiazol-4-yl]phenyl}-1,1,1-trifluoromethanesulfonamide] the same measures were 0% and 11%.
With `O=S(=O)(Nc1ccc(-c2csc(-c3cccc(CO)c3)n2)c(Cl)c1)C(F)(F)F` [Compound 83, N-(3-chloro-4-{2-[3-(hydroxymethyl)phenyl]-1,3-thiazol-4-yl}phenyl)-1,1,1-trifluoromethanesulfonamide], the inhibition at 5 µM with SREBP2 (HepG2 cells) came to 2%. For the same compound, the cytotoxicity at 3 days, 5 μM in data set [1] stood at 0%.
Turning to `Cc1cnccc1-c1nc(-c2ccc(NS(=O)(=O)C(F)(F)F)cc2Cl)cs1` [Compound 86, N-{3-chloro-4-[2-(3-methylpyridin-4-yl)-1,3-thiazol-4-yl]phenyl}-1,1,1-trifluoromethanesulfonamide], the inhibition at 5 µM in the data set with SREBP2 (HepG2 cells) is 54%. Further, in data set [1], the cytotoxicity at 3 days, 5 μM stood at 27%.
With `O=S(=O)(Nc1ccc(-c2csc(-c3c(F)cnc4[nH]ccc34)n2)c(Cl)c1)C(F)(F)F` [Compound 89, N-[3-chloro-4-(2-{5-fluoro-1H-pyrrolo[2,3-b]pyridin-4-yl}-1,3-thiazol-4-yl)phenyl]-1,1,1-trifluoromethanesulfonamide], the inhibition at 5 µM in the data set with SREBP2 (HepG2 cells) came to 53%.
In the case of `O=S(=O)(Nc1ccc(-c2csc(-c3ccc(F)cc3C(F)(F)F)n2)c(Cl)c1)C(F)(F)F` [Compound 81, N-[3-chloro-4-[2-[4-fluoro-2-(trifluoromethyl)phenyl]thiazol-4-yl]phenyl]-1,1,1-trifluoro-methanesulfonamide], in the data set on SREBP2 (HepG2 cells), the inhibition at 5 µM was 44%. Moreover, the cytotoxicity at 3 days, 5 μM in data set [1] worked out at 88%.
Turning to `COc1cc(-c2csc(-c3ccnc(C(C)(C)C)c3)n2)ccc1NS(=O)(=O)C(F)(F)F` [Compound 59, N-(4-(2-(2-tert-butylpyridin-4-yl)thiazol-4-yl)-2-methoxyphenyl)-1,1,1-trifluoromethanesulfonamide], in the data set on SREBP2 (setting [2]), the inhibition at 20 µM stood at 60.6%. The cytotoxicity at 3 days, 20 μM in data set [1] was found to be 99.8%.
On to `CCCc1cc(-c2nc(-c3cccc(NS(=O)(=O)C(F)(F)F)c3)cs2)ccn1` [Compound 2, 1,1,1-trifluoro-N-(3-(2-(2-propylpyridin-4-yl)thiazol-4-yl)phenyl)methanesulfonamide], for which, in the data set with SREBP2 (HepG2, 24 h), the inhibition at 20 µM stood at 73%. Further, the cytotoxicity at 3 days, 20 μM in data set [1] stood at 80.5%.
With `O=S(=O)(Nc1ccc(-c2csc(-c3ccccc3-c3ccccc3)n2)c(Cl)c1)C(F)(F)F` [Compound 74, N-{3-chloro-4-[2-(2-phenylphenyl)-1,3-thiazol-4-yl]phenyl}-1,1,1-trifluoromethanesulfonamide], the inhibition at 5 µM in the data set with SREBP2 (HepG2 cells) was found to be 76%. In data set [1], the cytotoxicity at 3 days, 5 μM turned out to be 97%.
Take `O=S(=O)(Nc1ccc(-c2csc(-c3ccnc(Cl)c3)n2)c(Cl)c1)C(F)(F)F` [Compound 95, N-(3-chloro-4-(2-(2-chloropyridin-4-yl)thiazol-4-yl)phenyl)-1,1,1-trifluoromethanesulfonamide]: the inhibition at 5 µM in the data set on SREBP2 (HepG2 cells) was determined as 39%. Moreover, the cytotoxicity at 3 days, 5 μM in data set [1] was determined as 86%.
Turning to `CCCc1cc(-c2nc(-c3ccc(NS(=O)(=O)C(F)(F)F)c(OC)c3)cs2)ccn1` [Compound 58, 1,1,1-trifluoro-N-{2-methoxy-4-[2-(2-propylpyridin-4-yl)-1,3-thiazol-4-yl]phenyl}methanesulfonamide], the inhibition at 20 µM in the data set with SREBP2 (setting [2]) is 29.4%. Further, the cytotoxicity at 3 days, 20 μM in data set [1] was found to be 67.9%.
As for `CCCc1cc(-c2nc(-c3ccc(NS(=O)(=O)C(F)(F)F)c(O)c3)cs2)ccn1` [Compound 63, 1,1,1-trifluoro-N-(2-hydroxy-4-(2-(2-propylpyridin-4-yl)thiazol-4-yl)phenyl)methanesulfonamide], in the data set with SREBP2 (setting [2]), the inhibition at 20 µM is 39%. Besides, the cytotoxicity at 3 days, 20 μM in data set [1] was 47%.
With `Cc1noc(C)c1-c1nc(-c2ccc(NS(=O)(=O)C(F)(F)F)cc2Cl)cs1` [Compound 77, N-{3-chloro-4-[2-(dimethyl-1,2-oxazol-4-yl)-1,3-thiazol-4-yl]phenyl}-1,1,1-trifluoromethanesulfonamide], in the data set on SREBP2 (HepG2 cells), the inhibition at 5 µM stood at 56%. In addition, the cytotoxicity at 3 days, 5 μM in data set [1] was found to be 41%.
In the case of `Cc1ccc(S(=O)(=O)Nc2cccc(-c3nc(-c4ccc(NS(=O)(=O)C(F)(F)F)cc4Cl)cs3)c2)cc1` [Compound 78, N-{3-[4-(2-chloro-4-trifluoromethanesulfonamidophenyl)-1,3-thiazol-2-yl]phenyl}-4-methylbenzene-1-sulfonamide], the inhibition at 5 µM in the data set on SREBP2 (HepG2 cells) came to 38%. For the same compound, the cytotoxicity at 3 days, 5 μM in data set [1] came to 87%.
Take `O=S(=O)(Nc1ccc(-c2csc(-c3csc4ccccc34)n2)c(Cl)c1)C(F)(F)F` [Compound 90, N-{4-[2-(1-benzothiophen-3-yl)-1,3-thiazol-4-yl]-3-chlorophenyl}-1,1,1-trifluoromethanesulfonamide]: the inhibition at 5 µM in the data set on SREBP2 (HepG2 cells) was 64%. In addition, the cytotoxicity at 3 days, 5 μM in data set [1] amounted to 99%.
As to `Nc1cc(-c2nc(-c3ccc(NS(=O)(=O)C(F)(F)F)cc3Cl)cs2)ccn1` [Compound 61, N-{4-[2-(2-aminopyridin-4-yl)-1,3-thiazol-4-yl]-3-chlorophenyl}-1,1,1-trifluoromethanesulfonamide], the inhibition at 20 µM in the data set on SREBP2 (setting [2]) was found to be 2%. Moreover, the cytotoxicity at 3 days, 20 μM in data set [1] was determined as 43%.
As for `CCCc1cc(-c2nc(-c3ccc(NS(=O)(=O)C(F)(F)F)cc3)cs2)ccn1` [Compound 1, 1,1,1-trifluoro-N-(4-(2-(2-propylpyridin-4-yl)thiazol-4-yl)phenyl)methanesulfonamide], the inhibition at 20 µM in the data set on SREBP2 (setting [2]) turned out to be 73.7%. For the same compound, the cytotoxicity at 3 days, 20 μM in data set [1] was determined as 92.1%.
For `O=S(=O)(Nc1ccc(-c2csc(-c3ccnc4ccccc34)n2)c(Cl)c1)C(F)(F)F` [Compound 94, N-[3-chloro-4-[2-(4-quinolyl)thiazol-4-yl]phenyl]-1,1,1-trifluoro-methanesulfonamide], the inhibition at 5 µM in the data set on SREBP2 (HepG2 cells) stood at 35%. Besides, in data set [1], the cytotoxicity at 3 days, 5 μM worked out at 84%.
Consider `O=S(=O)(Nc1ccc(-c2csc(-c3c[nH]c4ccccc34)n2)c(Cl)c1)C(F)(F)F` [Compound 93, N-{3-chloro-4-[2-(1H-indol-3-yl)-1,3-thiazol-4-yl]phenyl}-1,1,1-trifluoromethanesulfonamide], for which the inhibition at 5 µM in the data set on SREBP2 (HepG2 cells) amounted to 28%. The cytotoxicity at 3 days, 5 μM in data set [1] amounted to 82%.
For `CCCc1cc(-c2nc(-c3ccc(NS(=O)(=O)C(F)(F)F)cc3Cl)cs2)ccn1` [Compound 4, N-(3-chloro-4-(2-(2-propylpyridin-4-yl)thiazol-4-yl)phenyl)-1,1,1-trifluoromethanesulfonamide], the inhibition at 20 µM with SREBP2 (HepG2, 24 h) was 96.1%. The cytotoxicity at 3 days, 20 μM in data set [1] was found to be 94.4%.
On to `CS(=O)(=O)Nc1cc(-c2nc(-c3ccc(NS(=O)(=O)C(F)(F)F)cc3Cl)cs2)ccn1` [Compound 62, N-{3-chloro-4-[2-(2-methanesulfonamidopyridin-4-yl)-1,3-thiazol-4-yl]phenyl}-1,1,1-trifluoromethanesulfonamide], for which the inhibition at 20 µM with SREBP2 (setting [2]) stood at 0%. In addition, the cytotoxicity at 3 days, 20 μM in data set [1] worked out at 0%.
On to `O=S(=O)(Nc1ccc(-c2csc(-c3ccc(F)cc3CN3CCCC3)n2)c(Cl)c1)C(F)(F)F` [Compound 91, N-(3-chloro-4-{2-[4-fluoro-2-(pyrrolidin-1-ylmethyl)phenyl]-1,3-thiazol-4-yl}phenyl)-1,1,1-trifluoromethanesulfonamide], for which, in the data set on SREBP2 (HepG2 cells), the inhibition at 5 µM was 16%. Also, in data set [1], the cytotoxicity at 3 days, 5 μM worked out at 4%.

The record behind these values is patent US9670172B2, “Heterocyclic compounds and methods of use” (Medivation Technologies, Inc., priority 2014, dated 2017).
